# Laboratory results reported in patent publication US8614327B2 (Vertex Pharmaceuticals Incorporated, priority 2004, dated 2013).
# Biological target: T1, ΔF508-CFTR (Homo sapiens, UniProt P13569, DEL508-508)
# T1 construct: expressed in transfected cells
# Assay: Membrane potential optical (FRET/VIPR) assay, identification of potentiator compounds
# Assay type: cell-based
# Conditions: Table 3, assay not given; for % Activity: relative efficacy
# Procedure, shortened: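 Double-addition potentiator screen: compound delivered in gluconate-substituted Cl^--free medium, membrane potential followed via CC2-DMPE/DiSBAC2(3) FRET on VIPR. Cells were ΔF508-CFTR-expressing NIH3T3 mouse fibroblasts, held 2 h at 37° C. then 24 h at 27° C. before assay.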
# T1 sequence (P13569 with tags, fused parts or gaps DEL508-508): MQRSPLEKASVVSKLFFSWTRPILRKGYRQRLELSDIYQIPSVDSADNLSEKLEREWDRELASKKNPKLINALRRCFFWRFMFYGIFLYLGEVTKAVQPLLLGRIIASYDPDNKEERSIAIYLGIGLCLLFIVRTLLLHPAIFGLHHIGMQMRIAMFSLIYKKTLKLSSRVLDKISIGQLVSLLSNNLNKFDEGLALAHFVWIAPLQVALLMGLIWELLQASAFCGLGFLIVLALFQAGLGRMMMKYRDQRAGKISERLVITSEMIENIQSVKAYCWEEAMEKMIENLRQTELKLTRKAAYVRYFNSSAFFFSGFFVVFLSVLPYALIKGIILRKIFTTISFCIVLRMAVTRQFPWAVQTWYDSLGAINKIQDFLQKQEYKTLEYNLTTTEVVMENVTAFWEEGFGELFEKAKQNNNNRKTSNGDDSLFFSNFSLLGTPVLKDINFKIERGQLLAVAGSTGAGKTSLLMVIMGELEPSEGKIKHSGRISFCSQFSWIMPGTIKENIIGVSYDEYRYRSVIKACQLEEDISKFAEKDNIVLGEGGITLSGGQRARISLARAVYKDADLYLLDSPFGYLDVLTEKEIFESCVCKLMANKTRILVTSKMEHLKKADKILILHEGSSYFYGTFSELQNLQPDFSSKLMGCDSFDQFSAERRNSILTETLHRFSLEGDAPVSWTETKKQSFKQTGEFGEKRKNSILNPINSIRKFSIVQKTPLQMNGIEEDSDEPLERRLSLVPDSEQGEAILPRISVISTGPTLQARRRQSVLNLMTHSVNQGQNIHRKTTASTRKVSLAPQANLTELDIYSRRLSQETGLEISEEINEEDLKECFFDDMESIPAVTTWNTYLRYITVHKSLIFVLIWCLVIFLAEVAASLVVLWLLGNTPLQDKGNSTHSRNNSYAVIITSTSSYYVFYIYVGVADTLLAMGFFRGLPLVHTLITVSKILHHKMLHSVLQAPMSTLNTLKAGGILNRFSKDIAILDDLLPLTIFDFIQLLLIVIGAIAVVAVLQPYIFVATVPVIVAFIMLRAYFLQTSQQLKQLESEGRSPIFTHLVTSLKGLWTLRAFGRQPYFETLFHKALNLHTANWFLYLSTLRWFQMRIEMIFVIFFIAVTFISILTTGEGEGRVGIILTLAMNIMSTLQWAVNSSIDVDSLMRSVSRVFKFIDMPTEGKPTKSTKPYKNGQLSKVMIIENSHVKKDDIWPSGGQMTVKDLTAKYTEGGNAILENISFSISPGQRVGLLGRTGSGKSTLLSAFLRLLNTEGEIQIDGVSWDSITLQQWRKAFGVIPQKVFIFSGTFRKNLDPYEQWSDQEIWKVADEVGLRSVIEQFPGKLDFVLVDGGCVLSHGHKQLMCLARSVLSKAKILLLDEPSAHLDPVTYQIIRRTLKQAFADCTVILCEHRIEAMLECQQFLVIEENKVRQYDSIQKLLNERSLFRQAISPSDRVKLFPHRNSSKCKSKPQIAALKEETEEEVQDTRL
EC50 [µM],% Activity,SMILES
< 10,++ (between 25% to 100%),"CCc1cc2cc[nH]c2cc1NC(=O)c1c[nH]c2ccccc2c1=O [Compound 351, N-(5-ethyl-1H-indol-6-yl)-4-oxo-1H-quinoline-3-carboxamide]"
10 to 25,++ (between 25% to 100%),"O=C(Nc1ccc2[nH]ccc2c1)c1c[nH]c2ccccc2c1=O [Compound 294, N-(1H-indol-5-yl)-4-oxo-1H-quinoline-3-carboxamide]"
< 10,++ (between 25% to 100%),"O=C(Nc1cc(Cl)ccc1F)c1c[nH]c2ccccc2c1=O [Compound 48, N-(5-chloro-2-fluoro-phenyl)-4-oxo-1H-quinoline-3-carboxamide]"
< 10,++ (between 25% to 100%),"Cc1cccc2[nH]cc(C(=O)Nc3ccc(N4CC(F)(F)C[C@H]4C)cc3C(F)(F)F)c(=O)c12 [Compound 667, (R)-N-(4-(4,4-difluoro-2-methylpyrrolidin-1-yl)-2-(trifluoromethyl)phenyl)-5-methyl-4-oxo-1,4-dihydroquinoline-3-carboxamide]"
< 10,+++ (>100%),"O=C(Nc1ccc2c(C(F)(F)F)c[nH]c2c1)c1c[nH]c2ccccc2c1=O [Compound 545, 4-oxo-N-[3-(trifluoromethyl)-1H-indol-6-yl]-1H-quinoline-3-carboxamide]"
10 to 25,+ (<25%),"CCOc1cccc2c(=O)c(C(=O)Nc3cc(O)c(C(C)(C)C)cc3C(C)(C)C)c[nH]c12 [Compound 616, 8-ethoxy-N-(5-hydroxy-2,4-ditert-butyl-phenyl)-4-oxo-1H-quinoline-3-carboxamide]"
–,++ (between 25% to 100%),"O=C(Nc1ccccc1-c1ccc(Cl)cc1Cl)c1c[nH]c2ccccc2c1=O [Compound 139, N-[2-(2,4-dichlorophenyl)phenyl]-4-oxo-1H-quinoline-3-carboxamide]"
< 10,+ (<25%),"CC(C)(C)c1cc(C(C)(C)C)c(NC(=O)c2c[nH]c3c(C(F)(F)F)cccc3c2=O)cc1O [Compound 580, N-(5-hydroxy-2,4-ditert-butyl-phenyl)-4-oxo-8-(trifluoromethyl)-1H-quinoline-3-carboxamide]"
< 10,++ (between 25% to 100%),"O=C(Nc1cccc2c1CCC2)c1c[nH]c2ccccc2c1=O [Compound 373, N-indan-4-yl-4-oxo-1H-quinoline-3-carboxamide]"
10 to 25,+ (<25%),"Cc1cccc(NC(=O)c2c[nH]c3ccccc3c2=O)c1C#N [Compound 201, N-(2-cyano-3-methyl-phenyl)-4-oxo-1H-quinoline-3-carboxamide]"
< 10,++ (between 25% to 100%),"O=C(Nc1ccc(N2CC[C@H](O)C2)cc1C(F)(F)F)c1c[nH]c2ccccc2c1=O [Compound 655, (S)-N-(4-(3-hydroxypyrrolidin-1-yl)-2-(trifluoromethyl)phenyl)-4-oxo-1,4-dihydroquinoline-3-carboxamide]"
< 10,++ (between 25% to 100%),"O=C(Nc1cc(N2CCCC2)cc(C(F)(F)F)c1)c1c[nH]c2ccccc2c1=O [Compound 593, 4-oxo-N-[3-pyrrolidin-1-yl-5-(trifluoromethyl)phenyl]-1H-quinoline-3-carboxamide]"
< 10,++ (between 25% to 100%),"CC(C)(C)c1cc2cc[nH]c2cc1NC(=O)c1c[nH]c2cccc(O)c2c1=O [Compound 500, 5-hydroxy-4-oxo-N-(5-tert-butyl-1H-indol-6-yl)-1H-quinoline-3-carboxamide]"
< 10,++ (between 25% to 100%),"O=C(Nc1ccc(C(F)(F)F)cc1Cl)c1c[nH]c2cccc(O)c2c1=O [Compound 635, N-[2-chloro-4-(trifluoromethyl)phenyl]-5-hydroxy-4-oxo-1H-quinoline-3-carboxamide]"
< 10,++ (between 25% to 100%),"O=C(Nc1ccccc1-c1ccco1)c1c[nH]c2ccccc2c1=O [Compound 115, N-[2-(2-furyl)phenyl]-4-oxo-1H-quinoline-3-carboxamide]"
< 10,++ (between 25% to 100%),"Cc1cc(C2CCCCC2)ccc1NC(=O)c1c[nH]c2ccccc2c1=O [Compound 647, N-(4-cyclohexyl-2-methyl-phenyl)-4-oxo-1H-quinoline-3-carboxamide]"
< 10,++ (between 25% to 100%),"CC(C)(C)c1cc2ccc(NC(=O)c3c[nH]c4ccccc4c3=O)cc2[nH]1 [Compound 320, 4-oxo-N-(2-tert-butyl-1H-indol-6-yl)-1H-quinoline-3-carboxamide]"
< 10,++ (between 25% to 100%),"O=C(Nc1cc2[nH]ccc2cc1F)c1c[nH]c2ccccc2c1=O [Compound 77, N-(5-fluoro-1H-indol-6-yl)-4-oxo-1H-quinoline-3-carboxamide]"

EC50 [µM],% Activity,SMILES
< 10,++ (between 25% to 100%),"O=C(Nc1cc2[nH]ccc2cc1-c1cccnc1)c1c[nH]c2ccccc2c1=O [Compound 65, 4-oxo-N-[5-(3-pyridyl)-1H-indol-6-yl]-1H-quinoline-3-carboxamide]"
< 10,++ (between 25% to 100%),"COC(=O)NCC(C)(C)c1ccc(NC(=O)c2c[nH]c3ccccc3c2=O)cc1 [Compound 323, [2-Methyl-2-[4-[(4-oxo-1H-quinolin-3-yl)carbonylamino]phenyl]-propyl]aminoformic acid methyl ester]"
< 10,++ (between 25% to 100%),"CC1CCN(c2ccc(NC(=O)c3c[nH]c4ccccc4c3=O)c(C(F)(F)F)c2)C1 (stereo not shown) [Compound 555, N-[4-(3-methylpyrrolidin-1-yl)-2-(trifluoromethyl)phenyl]-4-oxo-1H-quinoline-3-carboxamide]"
< 10,++ (between 25% to 100%),"O=C(Nc1ccc(N2CCN(CCO)CC2)cc1C(F)(F)F)c1c[nH]c2ccccc2c1=O [Compound 673, N-[4-[4-(2-hydroxyethyl)piperazin-1-yl]-2-(trifluoromethyl)phenyl]-4-oxo-1H-quinoline-3-carboxamide]"
< 10,++ (between 25% to 100%),"O=C(Nc1ccccc1Cc1ccccc1)c1c[nH]c2ccccc2c1=O [Compound 265, N-(2-benzylphenyl)-4-oxo-1H-quinoline-3-carboxamide]"
–,++ (between 25% to 100%),"O=C(Nc1ccccc1-c1ccoc1)c1c[nH]c2ccccc2c1=O [Compound 123, N-[2-(3-furyl)phenyl]-4-oxo-1H-quinoline-3-carboxamide]"
< 10,++ (between 25% to 100%),"CCOC(=O)Nc1ccc(C(C)C)c(NC(=O)c2c[nH]c3ccccc3c2=O)c1 [Compound 269, [4-isopropyl-3-[(4-oxo-1H-quinolin-3-yl)carbonylamino]phenyl]aminoformic acid ethyl ester]"
< 10,++ (between 25% to 100%),"CCCCOC(=O)NCC(C)(C)c1ccc(NC(=O)c2c[nH]c3ccccc3c2=O)cc1 [Compound 460, [2-methyl-2-[4-[(4-oxo-1H-quinolin-3-yl)carbonylamino]phenyl]-propyl]aminoformic acid butyl ester]"
< 10,+++ (>100%),"O=C(Nc1ccc(N2CCOCC2)cc1C(F)(F)F)c1c[nH]c2ccccc2c1=O [Compound 598, N-[4-morpholino-2-(trifluoromethyl)phenyl]-4-oxo-1H-quinoline-3-carboxamide]"
< 10,++ (between 25% to 100%),"CN(C)c1ccc(-c2ccccc2NC(=O)c2c[nH]c3ccccc3c2=O)cc1 [Compound 12, N-[2-(4-dimethylaminophenyl)phenyl]-4-oxo-1H-quinoline-3-carboxamide]"
< 10,++ (between 25% to 100%),"CCc1ccc2ncc(C(=O)Nc3ccc4cc[nH]c4c3)c(O)c2c1 [Compound 67, 6-ethyl-4-hydroxy-N-(1H-indol-6-yl)quinoline-3-carboxamide]"
10 to 25,++ (between 25% to 100%),"CC(=O)Nc1cc(NC(=O)c2c[nH]c3ccccc3c2=O)cc(C(F)(F)F)c1 [Compound 379, N-[3-acetylamino-5-(trifluoromethyl)phenyl]-4-oxo-1H-quinoline-3-carboxamide]"
< 10,++ (between 25% to 100%),"Nc1cc(NC(=O)c2c[nH]c3ccccc3c2=O)ccc1Cl [Compound 453, N-(3-amino-4-chloro-phenyl)-4-oxo-1H-quinoline-3-carboxamide]"
25 to 60,+ (<25%),"NC(=O)c1ccccc1NC(=O)c1c[nH]c2ccccc2c1=O [Compound 331, N-(2-carbamoylphenyl)-4-oxo-1H-quinoline-3-carboxamide]"
< 10,++ (between 25% to 100%),"CC(C)c1cc(C(F)(F)F)c(NC(=O)c2c[nH]c3ccccc3c2=O)cc1OCc1ccccc1 [Compound 570, N-[5-benzyloxy-4-isopropyl-2-(trifluoromethyl)phenyl]-4-oxo-1H-quinoline-3-carboxamide]"
< 10,++ (between 25% to 100%),"Cc1c[nH]c2cc(NC(=O)c3c[nH]c4ccccc4c3=O)ccc12 [Compound 113, N-(3-methyl-1H-indol-6-yl)-4-oxo-1H-quinoline-3-carboxamide]"
< 10,++ (between 25% to 100%),"CC(C)(C)c1cccc(NC(=O)c2c[nH]c3ccccc3c2=O)c1 [Compound 602, 4-oxo-N-(3-tert-butylphenyl)-1H-quinoline-3-carboxamide]"
< 10,++ (between 25% to 100%),"Cc1cccc2[nH]cc(C(=O)Nc3ccc(N4CC[C@@H](C)C4)cc3C(F)(F)F)c(=O)c12 [Compound 613, (R)-5-methyl-N-(4-(3-methylpyrrolidin-1-yl)-2-(trifluoromethyl)phenyl)-4-oxo-1,4-dihydroquinoline-3-carboxamide]"
